Where two headings read alike, the source gives them in different places.

Data on 16 compounds can be found in PMC8623851, “The Structural Determinants for α1-Adrenergic/Serotonin Receptors Activity among Phenylpiperazine-Hydantoin Derivatives” (Molecules, 2021).

The target of data set [1] is α1-receptor. Details: method as in PMID 31383628, PMID 29425815. Particulars: previously reported arylpiperazine hydantoin derivatives; cited from earlier work.
Another data set addresses human 5-HT6 receptor (Homo sapiens, UniProt P50406). Briefly: Radioligand binding assay 5-HT6 (HEK-293 membranes, [3H]-LSD).
A further data set addresses human 5-HT7b receptor (Homo sapiens, UniProt P34969). As to the kind of experiment: Radioligand binding assay 5-HT7 (HEK-293 membranes, [3H]-5-CT).
Data set [2] deals with α1-receptor. Briefly: Radioligand binding assay: affinity for α1-receptor ([3H]Prazosin, rat cortex). The protocol: Tissue (rat cortex) was homogenized in 20 volumes of ice-cold 50 mM Tris-HCl buffer, pH 7.6, using an Ultra Turrax T25B homogenizer (IKA, Staufen, Germany). The homogenate was centrifuged at 20,000× g for 20 min. The resulting supernatant was decanted and pellet was resuspended in the same buffer and centrifuged again in the same conditions. The final pellet was resuspended in an appropriate volume of buffer (10 mg/1 mL).
The concentrations of analyzed compounds ranged from 10^−10 to 10^−5 M.
The incubation was terminated by rapid filtration over glass fiber filters FilterMate B (PerkinElmer, Waltham, MA, USA) using a 96-well FilterMate harvester (PerkinElmer, Waltham, MA, USA). Five rapid washes were performed with ice-cold 50 mM Tris-HCl buffer, pH 7.6.
The FilterMate was dried in a microwave and placed in a plastic bag (PerkinElmer, Waltham, MA, USA) and soaked in 10 mL of a liquid scintillation cocktail Ultima Gold MV (PerkinElmer, Waltham, MA, USA). After even distribution of the scintillation cocktail, the filter bag was sealed.
The radioactivity on the filter was measured by a MicroBeta TriLux 1450 scintillation counter (PerkinElmer, Waltham, MA, USA).
Radioligand binding data were analyzed using iterative curve fitting routines GraphPad Prism 3.0 (GraphPad Software, San Diego, CA, USA) using the built-in three parameter logistic model describing ligand competition binding to radioligand-labeled sites.

The target in another data set is T1, human 5-HT1A receptor (Homo sapiens, UniProt P08908).
T1 sequence (P08908 1-422): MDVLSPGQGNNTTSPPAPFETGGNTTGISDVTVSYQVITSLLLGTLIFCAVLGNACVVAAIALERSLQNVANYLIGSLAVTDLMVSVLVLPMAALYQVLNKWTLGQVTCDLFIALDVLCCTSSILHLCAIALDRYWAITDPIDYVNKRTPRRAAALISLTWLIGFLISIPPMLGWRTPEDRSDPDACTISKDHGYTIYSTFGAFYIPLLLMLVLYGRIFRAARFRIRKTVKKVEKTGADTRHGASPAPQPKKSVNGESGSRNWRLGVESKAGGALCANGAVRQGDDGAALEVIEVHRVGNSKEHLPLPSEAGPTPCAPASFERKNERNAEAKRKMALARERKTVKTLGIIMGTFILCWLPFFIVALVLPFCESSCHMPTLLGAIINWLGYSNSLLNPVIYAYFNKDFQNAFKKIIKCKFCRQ
As to the kind of experiment: Radioligand binding assay 5-HT1A (HEK-293 membranes, [3H]-8-OH-DPAT).

For the next data set, the target named is T2, α1B-AR (Homo sapiens, UniProt P35368).
T2 construct: expressed in transfected cells; host or cells: recombinant Aequoscreen cell line (frozen, ready to use)
T2 sequence (P35368 1-520): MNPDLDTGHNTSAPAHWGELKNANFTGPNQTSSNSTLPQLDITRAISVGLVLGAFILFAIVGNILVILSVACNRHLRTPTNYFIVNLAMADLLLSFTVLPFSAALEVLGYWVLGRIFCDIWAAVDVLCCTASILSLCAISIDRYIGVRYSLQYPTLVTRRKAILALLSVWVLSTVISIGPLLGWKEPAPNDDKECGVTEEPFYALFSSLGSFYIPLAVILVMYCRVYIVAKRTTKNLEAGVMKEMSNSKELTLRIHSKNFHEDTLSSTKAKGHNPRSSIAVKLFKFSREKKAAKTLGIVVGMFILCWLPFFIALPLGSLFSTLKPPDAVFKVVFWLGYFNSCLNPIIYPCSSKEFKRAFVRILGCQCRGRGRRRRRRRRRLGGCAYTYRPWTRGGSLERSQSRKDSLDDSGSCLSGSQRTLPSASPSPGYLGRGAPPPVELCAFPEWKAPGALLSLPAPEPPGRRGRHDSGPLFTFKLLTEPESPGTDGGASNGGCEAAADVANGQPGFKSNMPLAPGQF
Briefly: Intrinsic (functional) activity for α1B-AR (Aequoscreen). Conditions: antagonist potency; α1B-AR in mouse spleen (table title); 4–7 experimental results; read-out: IC50 ± SEM α1B-AR. It counts as cell-based.

Another data set concerns the target T3, α1A-AR (Homo sapiens, UniProt P35348).
T3 sequence (P35348 1-466): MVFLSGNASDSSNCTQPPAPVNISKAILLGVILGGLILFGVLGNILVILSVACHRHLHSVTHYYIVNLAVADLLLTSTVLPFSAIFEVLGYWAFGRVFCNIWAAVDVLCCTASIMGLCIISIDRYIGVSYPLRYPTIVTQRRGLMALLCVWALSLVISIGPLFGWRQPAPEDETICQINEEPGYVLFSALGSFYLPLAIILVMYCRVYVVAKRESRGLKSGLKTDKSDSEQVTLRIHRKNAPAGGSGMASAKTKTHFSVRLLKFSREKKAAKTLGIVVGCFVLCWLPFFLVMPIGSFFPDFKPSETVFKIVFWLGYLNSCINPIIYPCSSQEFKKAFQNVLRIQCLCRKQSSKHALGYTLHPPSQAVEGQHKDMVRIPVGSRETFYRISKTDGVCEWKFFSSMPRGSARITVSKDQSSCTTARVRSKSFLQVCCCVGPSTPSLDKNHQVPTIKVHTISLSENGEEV
Briefly: Intrinsic (functional) activity for α1A-AR. It counts as cell-based. Conditions: antagonist potency; α1A-AR in rat tail artery (table title); 4–7 experimental results; read-out: IC50 ± SEM α1A-AR.

Sequence of human 5-HT7b receptor (P34969 1-432): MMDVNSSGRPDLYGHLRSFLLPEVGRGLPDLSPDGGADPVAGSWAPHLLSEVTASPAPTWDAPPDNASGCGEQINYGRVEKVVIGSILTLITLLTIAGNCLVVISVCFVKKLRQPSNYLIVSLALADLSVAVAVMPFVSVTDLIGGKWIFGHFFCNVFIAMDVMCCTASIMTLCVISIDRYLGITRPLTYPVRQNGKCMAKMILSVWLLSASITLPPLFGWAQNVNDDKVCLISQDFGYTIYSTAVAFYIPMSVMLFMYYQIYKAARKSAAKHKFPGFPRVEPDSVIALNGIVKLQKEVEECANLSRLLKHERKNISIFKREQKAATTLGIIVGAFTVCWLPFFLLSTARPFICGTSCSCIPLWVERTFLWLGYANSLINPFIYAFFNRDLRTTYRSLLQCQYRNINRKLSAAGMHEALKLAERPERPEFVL
Sequence of human 5-HT6 receptor (P50406 whole entry): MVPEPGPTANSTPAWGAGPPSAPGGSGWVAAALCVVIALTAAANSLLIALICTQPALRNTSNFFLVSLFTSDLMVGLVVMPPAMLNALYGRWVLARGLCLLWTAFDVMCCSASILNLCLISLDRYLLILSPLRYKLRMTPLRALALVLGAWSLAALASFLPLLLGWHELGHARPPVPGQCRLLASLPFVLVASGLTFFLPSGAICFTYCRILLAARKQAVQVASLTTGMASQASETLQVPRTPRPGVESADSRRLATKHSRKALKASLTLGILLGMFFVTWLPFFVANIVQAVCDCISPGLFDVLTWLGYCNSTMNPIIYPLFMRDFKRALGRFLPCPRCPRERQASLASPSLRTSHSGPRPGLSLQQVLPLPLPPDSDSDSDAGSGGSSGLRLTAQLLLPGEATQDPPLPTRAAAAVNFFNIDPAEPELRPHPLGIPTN
Description for α1A-AR: An intrinsic activity assay was performed according to the manufacturer of the assay kit (Invitrogen, Thermo Fisher Scientific). […] Of the cell suspension, 32 µL per well was added to the Test Compound wells, the Unstimulated Control wells, and Stimulated Control wells and were incubated per 16–24 h. […] Then, both the agonist and the antagonist plate were incubated in a humidified 37 °C/5% CO2 incubator for 5 h. Then, cells were loaded with 8 µL of LiveBLAzer™-FRET B/G Substrate Mixture (CCF4-AM, Thermo Fisher Scientific) and incubated at room temperature for 2 h.
Description for α1B-AR: The Aequoscreen technology uses the recombinant cell lines with stable expression of the α1B or α1D adrenoreceptor and co-expression of apoaequorin and a GPCR as a system to detect the activation of the receptor, following the addition of an agonist, via the measurement of light emission. For measurement, cells (frozen, ready to use) were thawed and resuspended in 10-mL of assay buffer containing 5 μM coelenterazine h. This cell suspension was put in a 10-mL Falcon tube, fixed onto a rotating wheel and incubated overnight at RT° in the dark. Cells were diluted with Assay Buffer to 5000 cells/20 µL. In the first part, agonistic activity was tested. Potential agonists (standard and tested) 2× (50 μL/well), diluted in Assay Buffer, were prepared in 1/2 white polystryrene area plates, and the cell suspension was dispensed in 50 μL volume on the ligands using the injector. The light emitted was recorded for 20 s. In the second part, the agonistic activity was tested. Cells with tested compounds were incubated for 15 min at room temperature.

Take `COc1ccc(/C=C2\NC(=O)N(CC(O)CN3CCN(c4ccccc4OC)CC3)C2=O)cc1OC` (stereo not shown) [Compound 1]: the Ki (commonly a measure of affinity in units of concentration, obtained from inhibition or displacement) at α1-receptor [1] is 44.5 nM.
Turning to `COc1cccc(/C=C2\NC(=O)N(CC(O)CN3CCN(c4ccccc4OC)CC3)C2=O)c1` (stereo not shown) [Compound 4, (Z)-3-(2-hydroxy-3-(4-(2-methoxyphenyl)piperazin-1-yl)propyl)-5-(3-methoxybenzylidene)imidazolidine-2,4-dione], the Ki turned out to be 17600 nM at human 5-HT6 receptor, 283 nM at human 5-HT7b receptor, 187 ± 18.6 nM on α1-receptor [2] and 530 nM on human 5-HT1A receptor.
The matching figures for `CCOc1ccccc1N1CCN(CC(O)CN2C(=O)N/C(=C\c3cccc(OC)c3)C2=O)CC1` (stereo not shown) [Compound 5, (Z)-3-(3-(4-(2-ethoxyphenyl)piperazin-1-yl)-2-hydroxypropyl)-5-(3-methoxybenzylidene)imidazolidine-2,4-dione]: 19200 nM, 79 nM, 75.9 ± 2.3 nM and 557 nM.
`COc1ccc(/C=C2\NC(=O)N(CC(O)CN3CCN(c4ccccc4OC)CC3)C2=O)cc1` (stereo not shown) [Compound 6, (Z)-3-(2-hydroxy-3-(4-(2-methoxyphenyl)piperazin-1-yl)propyl)-5-(4-methoxybenzylidene)imidazolidine-2,4-dione]: the melting point – broadly, the temperature of the solid-liquid transition – was in the range of 176 to 178 °C. In addition, on human 5-HT6 receptor, the Ki stood at 20400 nM. On human 5-HT7b receptor, this compound registered an inhibition constant (Ki) of 197 nM. For the same compound, affinity at α1-receptor [2] was put at a Ki of 145 ± 13.3 nM. Further, on human 5-HT1A receptor, the affinity corresponds to a Ki of 282 nM.
On to `CCOc1ccccc1N1CCN(CC(O)CN2C(=O)N/C(=C\c3ccc(OC)cc3)C2=O)CC1` (stereo not shown) [Compound 7, (Z)-3-(3-(4-(2-ethoxyphenyl)piperazin-1-yl)-2-hydroxypropyl)-5-(4-methoxybenzylidene)imidazolidine-2,4-dione], for which the inhibitory constant (Ki) on human 5-HT6 receptor worked out at 10200 nM; at human 5-HT7b receptor, 120 nM; at α1-receptor [2], 99.1 ± 11.3 nM; at human 5-HT1A receptor, 313 nM.
In the case of `COc1ccc(/C=C2\NC(=O)N(CC(O)CN3CCN(c4ccccc4F)CC3)C2=O)cc1` (stereo not shown) [Compound 8, (Z)-3-(3-(4-(2-fluorophenyl)piperazin-1-yl)-2-hydroxypropyl)-5-(4-methoxybenzylidene)imidazolidine-2,4-dione], the melting point fell in the range of 104 to 106 °C. Further, the affinity on human 5-HT6 receptor corresponds to a Ki of 11700 nM. The compound further had a Ki at human 5-HT7b receptor of 1040 nM. The compound further came in with an inhibition constant (Ki) at α1-receptor [2] of 144 ± 7.9 nM. For the same compound, the Ki on human 5-HT1A receptor stood at 3530 nM.
For the compound `CCOc1ccccc1N1CCN(CC(O)CN2C(=O)N/C(=C\c3cc(OC)c(OC)c(OC)c3)C2=O)CC1` (stereo not shown) [Compound 9, (Z)-3-(3-(4-(2-ethoxyphenyl)piperazin-1-yl)-2-hydroxypropyl)-5-(3,4,5-trimethoxybenzylidene)imidazolidine-2,4-dione], the melting point was in the range of 104 to 106 °C. On human 5-HT6 receptor, this compound had a Ki of 2830 nM. The compound further returned a Ki on human 5-HT7b receptor of 1250 nM. Further, the inhibition constant (Ki) at α1-receptor [2] amounted to 89.5 ± 9 nM. This compound registered a Ki on human 5-HT1A receptor of 1870 nM.
For the compound `CCOc1ccccc1N1CCN(CCCN2C(=O)N/C(=C\c3cccc(OC)c3)C2=O)CC1` [Compound 10, (Z)-3-(3-(4-(2-ethoxyphenyl)piperazin-1-yl)propyl)-5-(3-methoxybenzylidene)imidazolidine-2,4-dione], the IC50 (usually the concentration that inhibits the measured activity by half) stood at 9.2 ± 1.3 nM on α1B-AR and 7.2 ± 1.1 nM on α1A-AR. The Ki at α1-receptor [2] was 20.2 ± 4.1 nM; at human 5-HT1A receptor it was 103 nM.
`COc1cccc(/C=C2\NC(=O)N(CCCN3CCN(c4ccccc4Cl)CC3)C2=O)c1` [Compound 11, (Z)-3-(3-(4-(2-chlorophenyl)piperazin-1-yl)propyl)-5-(3-methoxybenzylidene)imidazolidine-2,4-dione] came in with a melting point of 144 to 146 °C. The compound also came in with a Ki at human 5-HT6 receptor of 1720 nM. In addition, the affinity on human 5-HT7b receptor, expressed as Ki, was 152 nM. For the same compound, at α1-receptor [2], the Ki amounted to 44.8 ± 3.3 nM. Moreover, affinity at human 5-HT1A receptor was put at a Ki of 319 nM.
Turning to `COc1ccc(/C=C2\NC(=O)N(CCCN3CCN(c4ccccc4OC)CC3)C2=O)cc1` [Compound 12, (Z)-5-(4-methoxybenzylidene)-3-(3-(4-(2-methoxyphenyl)piperazin-1-yl)propyl)imidazolidine-2,4-dione], the IC50 at α1B-AR came to 8.5 ± 1.1 nM; at α1A-AR, 12.8 ± 2.5 nM. For the same compound, the Ki on human 5-HT6 receptor was 22000 nM; on human 5-HT7b receptor, 101 nM; on α1-receptor [2], 34.6 ± 4.6 nM; on human 5-HT1A receptor it was 20.6 nM.
`CCOc1ccccc1N1CCN(CCCN2C(=O)N/C(=C\c3ccc(OC)cc3)C2=O)CC1` [Compound 13, (Z)-3-(3-(4-(2-ethoxyphenyl)piperazin-1-yl)propyl)-5-(4-methoxybenzylidene)imidazolidine-2,4-dione] had a melting point of 180 to 183 °C. In addition, at human 5-HT6 receptor, the Ki is greater than 50000 nM. This compound displayed a Ki at human 5-HT7b receptor of 114 nM. In addition, the Ki on α1-receptor [2] was determined as 19.5 ± 2.6 nM. For the same compound, on human 5-HT1A receptor, the affinity, expressed as Ki, was 45.8 nM.
On to `COc1ccc(/C=C2\NC(=O)N(CCCN3CCN(c4ccccc4OC)CC3)C2=O)cc1OC` [Compound 14], for which the values for the IC50 at α1B-AR and on α1A-AR were 182 ± 21.4 nM and 57.6 ± 7.2 nM, respectively. The inhibitory constant (Ki) on human 5-HT6 receptor amounted to 15800 nM; on human 5-HT7b receptor, 189 nM; at α1-receptor [2], 11.9 ± 2.2 nM; at human 5-HT1A receptor, 128 nM.
The compound `COc1ccccc1N1CCN(CCCN2C(=O)N/C(=C\c3cc(OC)c(OC)c(OC)c3)C2=O)CC1` [Compound 15, (Z)-3-(3-(4-(2-methoxyphenyl)piperazin-1-yl)propyl)-5-(3,4,5-trimethoxybenzylidene)imidazolidine-2,4-dione] had a melting point of 130 to 132 °C. This compound displayed a Ki on human 5-HT6 receptor of 12300 nM. The affinity at human 5-HT7b receptor corresponds to a Ki of 668 nM. Moreover, the Ki at α1-receptor [2] is 25.8 ± 2.9 nM. The inhibitory constant (Ki) at human 5-HT1A receptor was found to be 172 nM.
Turning to `CCOc1ccccc1N1CCN(CCCN2C(=O)N/C(=C\c3cc(OC)c(OC)c(OC)c3)C2=O)CC1` [Compound 16, (Z)-3-(3-(4-(2-ethoxyphenyl)piperazin-1-yl)propyl)-5-(3,4,5-trimethoxybenzylidene)imidazolidine-2,4-dione], the IC50 on α1B-AR was 0.82 ± 0.1 nM; on α1A-AR, 19.1 ± 3.4 nM. Further, the Ki at human 5-HT6 receptor was found to be 15200 nM; on human 5-HT7b receptor, 138 nM; at α1-receptor [2], 14.7 ± 1.1 nM; at human 5-HT1A receptor, 165 nM.
For `CCOc1ccccc1OCCN[C@H](C)Cc1ccc(OC)c(S(N)(=O)=O)c1` [Tamsulosin, reference compound], the IC50 at α1B-AR was 0.13 ± 0.02 nM.
`Cc1ccc(N(CC2=NCCN2)c2cccc(O)c2)cc1` [fentolamine, reference compound]: affinity on α1-receptor [2] was put at a Ki of 15.7 ± 1.5 nM.
